The values that follow are results of earlier work, collected in patent US20160058814A1, “PLANT EXTRACTS AND RELATED COMPOSITIONS, METHODS AND SYSTEMS” (priority 2014, published 2016).

Usually LD50 stands for the dose at which mortality reaches 50%.

The conditions of this data set: in vivo.

Regarding `O=c1ccc2ccccc2o1` [Coumarin, coumarin], the median lethal dose (LD50) was 275 mg/kg.
